Each structure is given as a SMILES string. Where only a bound is given, the exact number is not on record here.

The values that follow come from ChEMBL document CHEMBL1145393, “Synthesis and antitumour activity of new tiazofurin analogues bearing a 2,3-anhydro functionality in the furanose ring” (Bioorg Med Chem Lett, 2007).

The test system of one assay is HT-29. As to the kind of experiment: Cytotoxicity against human HT29 cell line after 48 hrs by MTT assay. The assay is classed as cell-based. As to conditions: HT-29, 48 h. For orientation: Tetrazolium assays rely on reduction of a dye to a coloured formazan, in cell work by metabolically active cells.
A further assay relates to MCF7. Kind of assay: Cytotoxicity against human MCF7 cell line after 48 hrs by MTT assay. Type of assay: cell-based. As to conditions: MCF7, 48 h.
For a further assay, the system named is K562. Kind of assay: Cytotoxicity against human K562 cells after 48 hrs by MTT assay. The assay is classed as cell-based. The settings on record: K562, 48 h.
Another assay has as its system HL-60. Kind of assay: Cytotoxicity against human HL60 cell line after 48 hrs by MTT assay. Type of assay: cell-based. The settings on record: HL-60, 48 h.
The subject of another assay is MRC5. Kind of assay: Cytotoxicity against human MRC5 cell line after 48 hrs by MTT assay. Type of assay: functional, cell-based. The settings on record: MRC5, 48 h.
In a further assay the test system is Jurkat. Kind of assay: Cytotoxicity against human Jurkat T cells after 48 hrs by MTT assay. Type of assay: cell-based.
The test system of the next assay is Raji. Kind of assay: Cytotoxicity against human Raji cells after 48 hrs by MTT assay. The assay is classed as cell-based.

What is called IC50 is the midpoint of a concentration-inhibition curve. Low readings indicate higher potency, high ones lower potency. With `NC(=O)c1csc(C[C@@H]2O[C@H](CO)[C@H]3O[C@H]32)n1`, the concentration for half-maximal inhibition (IC50) in the assay with HT-29 is 90 nM; in the assay on MCF7 it was 9090 nM; in the assay with K562, 490 nM; in the assay with HL-60, 3500 nM; in the assay on MRC5, above 100000 nM; in the assay on Jurkat it was 2180 nM. Besides, the IC50 with Raji amounted to 70 nM.

On to `NC(=O)c1csc(C[C@H]2O[C@H](CO)[C@H]3O[C@H]32)n1`, for which the IC50 was 530 nM in the assay on HT-29; 10000 nM in the assay with MCF7; 90 nM in the assay on K562; above 100000 nM in the assay on HL-60; above 100000 nM with MRC5; 11000 nM in the assay with Jurkat. In the assay on Raji, this molecule gave a 50% inhibitory concentration (IC50) above 100000 nM.

As for `NC(=O)c1csc([C@@H]2O[C@H](CO)[C@H]3O[C@H]32)n1`, the IC50 was above 100000 nM in the assay with HT-29; 960 nM with MCF7; 190 nM in the assay with K562; 2080 nM with HL-60; above 100000 nM in the assay on MRC5; 4840 nM in the assay on Jurkat. This molecule also yielded an IC50 with Raji of 540 nM.

On to `NC(=O)c1csc([C@@H]2O[C@H](CO)[C@@H](O)[C@H]2O)n1` [TIAZOFURIN], for which the IC50 with HT-29 amounted to 890 nM; in the assay with MCF7, 6390 nM; with HL-60, 1840 nM; in the assay with MRC5, 490 nM; in the assay with Jurkat, 510 nM; in the assay on Raji it was 16100 nM.
